Results reported in patent US11046716B2, “Beta-lactamase inhibitors” (priority 2015, dated 2021).

Key:
SHV-5 = molecular target: T1, SHV-5 (Klebsiella pneumoniae, UniProt P0A3M1); assay: β-lactamase enzyme inhibition assay, SHV-5 (cefotaxime substrate); assay type: biochemical
T1 construct: made in house; host or cells: E. coli BL21(DE3)
How it was run: (§1)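 Untagged enzyme from E. coli BL21(DE3), purified by Capto S then Superdex 75; 15 min 37 °C preincubation with inhibitor; KPC-2 read with imipenem at 300 nm, SHV-5 with cefotaxime at 260 nm, OXA-1 with nitrocefin 100 μM final at 486 nm; 10 min kinetic read; IC50 vs uninhibited wells.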

KPC-2 = molecular target: T2, KPC-2 (Klebsiella pneumoniae, UniProt Q9F663); assay: β-lactamase enzyme inhibition assay, KPC-2 (imipenem substrate); assay type: biochemical; details: Class A; imipenem substrate, 300 nm; read-out: KPC-2
T2 construct: made in house; host or cells: E. coli BL21(DE3)
How it was run: as §1

VIM-2 = molecular target: T3, VIM-2 (Escherichia coli, UniProt Q5U7L7); assay: β-lactamase enzyme inhibition assay, VIM-2 (nitrocefin substrate); assay type: biochemical; details: Class B; nitrocefin substrate, 486 nm; read-out: VIM-2
T3 construct: made in house; host or cells: E. coli BL21(DE3)
How it was run: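 Metallo-β-lactamase VIM-2 activity was tracked spectrophotometrically at 486 nm with 100 μM nitrocefin over 10 min, following 15 min preincubation with compound at 37 °C; inhibition was calculated per concentration.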

AmpC = molecular target: T4, AmpC (Enterobacter cloacae, UniProt P05364); assay: β-lactamase enzyme inhibition assay, p99 AmpC (nitrocefin substrate); assay type: biochemical
T4 construct: made in house; host or cells: E. coli BL21(DE3)
How it was run: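 Untagged enzyme from E. coli BL21(DE3), purified by Capto S then Superdex 75; 15 min 37 °C preincubation with inhibitor; 10 min kinetic read; IC50 vs uninhibited wells.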

OXA-48 = OXA-48 (UniProt Q6XEC0); assay: β-lactamase enzyme inhibition assay, Class D oxacillinase; assay type: biochemical; details: read-out: OXA-48
[1] = system: E. coli expressing the Class A Extended Spectrum Beta-Lactamase (ESBL) CTX-M-15; assay: Broth microdilution MIC assay with ceftazidime, E. coli CTX-M-15; assay type: cell-based; details: Fixed CAZ (ceftazidime) 4 μg/mL; E. coli ESBL4 CTX-M-15
How it was run: (§2)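 In cation-adjusted Mueller Hinton broth, bacteria pre-grown 3-5 hours were exposed to test compound (2-fold, 16–0.125 μg/mL) plus a static 4 μg/ml β-lactam. A panel of control β-lactams was run alongside, and the compound MIC was judged by eye following 16-20 hours at 37° C.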

[2] = system: E. cloacae expressing the Class C P99; assay: Broth microdilution MIC assay with ceftazidime, E. cloacae P99; assay type: cell-based; details: Fixed CAZ (ceftazidime) 4 μg/mL; E. cl. 144200 p99 AmpC
How it was run: as §2

[3] = system: K. pneumoniae expressing the Class A carbapenemase KPC-2; assay: Broth microdilution MIC assay with meropenem, K. pneumoniae KPC-2; assay type: cell-based; details: Fixed Mero (meropenem) 4 μg/mL; K. p. 156319 KPC-3
How it was run: as §2

[4] = system: P. aeruginosa expressing the Class B carbapenemase VIM-2; assay: Broth microdilution MIC assay with meropenem, P. aeruginosa VIM-2; assay type: cell-based; details: Fixed Mero (meropenem) 4 μg/mL; P. aerug. 2775 VIM-2
How it was run: as §2

[5] = system: K. pneumoniae expressing the class A carbapenemase KPC-2 and the class B carbapenemase VIM-4; assay: Broth microdilution MIC assay with meropenem, K. pneumoniae KPC-2 and VIM-4; assay type: cell-based; details: Fixed Mero (meropenem) 4 μg/mL; K. p. A-1797 KPC-2 VIM-4
How it was run: as §2

[6] = system: K. pneumoniae producing the Class D carbapenemase OXA-48; assay: Broth microdilution MIC assay with meropenem, K. pneumoniae OXA-48; assay type: cell-based; details: Fixed Mero (meropenem) 4 μg/mL; K. p. 11978 OXA-48
How it was run: as §2

T4 sequence (P05364 21-381): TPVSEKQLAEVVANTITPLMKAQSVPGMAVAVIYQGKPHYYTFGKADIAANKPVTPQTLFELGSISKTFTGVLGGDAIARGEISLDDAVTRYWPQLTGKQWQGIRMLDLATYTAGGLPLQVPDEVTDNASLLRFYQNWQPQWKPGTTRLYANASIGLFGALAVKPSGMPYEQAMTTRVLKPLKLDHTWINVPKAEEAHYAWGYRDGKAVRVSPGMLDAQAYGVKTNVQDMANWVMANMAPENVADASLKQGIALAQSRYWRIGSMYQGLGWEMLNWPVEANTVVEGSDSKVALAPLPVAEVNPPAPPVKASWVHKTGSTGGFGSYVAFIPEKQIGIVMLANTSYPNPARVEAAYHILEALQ
T2 sequence (Q9F663 25-293, looked up): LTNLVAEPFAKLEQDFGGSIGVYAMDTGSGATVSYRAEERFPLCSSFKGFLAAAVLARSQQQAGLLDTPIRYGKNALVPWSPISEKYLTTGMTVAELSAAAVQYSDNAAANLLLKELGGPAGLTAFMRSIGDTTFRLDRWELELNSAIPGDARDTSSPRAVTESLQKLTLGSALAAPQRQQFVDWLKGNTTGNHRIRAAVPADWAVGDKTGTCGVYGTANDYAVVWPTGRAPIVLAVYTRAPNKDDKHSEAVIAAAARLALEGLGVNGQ
T1 sequence (P0A3M1 22-286): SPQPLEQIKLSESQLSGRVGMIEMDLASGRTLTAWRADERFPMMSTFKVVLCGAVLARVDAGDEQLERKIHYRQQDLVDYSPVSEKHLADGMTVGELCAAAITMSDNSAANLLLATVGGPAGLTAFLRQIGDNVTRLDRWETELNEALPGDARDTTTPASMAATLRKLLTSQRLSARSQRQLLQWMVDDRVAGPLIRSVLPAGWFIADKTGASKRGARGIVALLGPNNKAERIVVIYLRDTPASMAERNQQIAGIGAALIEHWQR

SMILES | IC50 (SHV-5) | IC50 (KPC-2) | IC50 (VIM-2) | IC50 (AmpC) | IC50 (OXA-48) | MIC (μg/mL) of Exemplary Compounds in presence of fixed β-lactams: E. coli ESBL4 CTX-M-15 [1] | MIC (μg/mL) of Exemplary Compounds in presence of fixed β-lactams: E. cl. 144200 p99 AmpC [2] | MIC (μg/mL) of Exemplary Compounds in presence of fixed β-lactams: K. p. 156319 KPC-3 [3] | MIC (μg/mL) of Exemplary Compounds in presence of fixed β-lactams: P. aerug. 2775 VIM-2 [4] | MIC (μg/mL) of Exemplary Compounds in presence of fixed β-lactams: K. p. A-1797 KPC-2 VIM-4 [5] | MIC (μg/mL) of Exemplary Compounds in presence of fixed β-lactams: K. p. 11978 OXA-48 [6]
Cc1c(CN)nnn1CC(=O)N[C@H]1Cc2cccc(C(=O)O)c2OB1O [Example 106, (R)-3-(2-(4-(aminomethyl)-5-methyl-1H-1,2,3-triazol-1-yl)acetamido)-2-hydroxy-3,4-dihydro-2H-benzo[e][1,2]oxaborinine-8-carboxylic acid] | 100 to 1000 nM | < 100 nM | < 100 nM | < 100 nM | < 100 nM | C (C represents an MIC of <1 μg/mL) | C (C represents an MIC of <1 μg/mL) | C (C represents an MIC of <1 μg/mL) | C (C represents an MIC of <1 μg/mL) | C (C represents an MIC of <1 μg/mL) | B (B represents an MIC between 1 and 16 μg/mL inclusive)
O=C(Cn1cc([N+](=O)[O-])cn1)N[C@H]1Cc2cccc(C(=O)O)c2OB1O [Example 56, (R)-2-hydroxy-3-(2-(4-nitro-1H-pyrazol-1-yl)acetamido)-3,4-dihydro-2H-benzo[e][1,2]oxaborinine-8-carboxylic acid] | < 100 nM | < 100 nM | 100 to 1000 nM | < 100 nM | 100 to 1000 nM | C (C represents an MIC of <1 μg/mL) | C (C represents an MIC of <1 μg/mL) | B (B represents an MIC between 1 and 16 μg/mL inclusive) | B (B represents an MIC between 1 and 16 μg/mL inclusive) | B (B represents an MIC between 1 and 16 μg/mL inclusive) | B (B represents an MIC between 1 and 16 μg/mL inclusive)
N#Cc1ncn(CC(=O)N[C@H]2Cc3cccc(C(=O)O)c3OB2O)n1 [Example 25, (R)-3-(2-(3-cyano-1H-1,2,4-triazol-1-yl)acetamido)-2-hydroxy-3,4-dihydro-2H-benzo[e][1,2]oxaborinine-8-carboxylic acid] | < 100 nM | < 100 nM | 100 to 1000 nM | < 100 nM | 100 to 1000 nM | C (C represents an MIC of <1 μg/mL) | C (C represents an MIC of <1 μg/mL) | B (B represents an MIC between 1 and 16 μg/mL inclusive) | B (B represents an MIC between 1 and 16 μg/mL inclusive) | A (A represents an MIC>16 μg/mL) | B (B represents an MIC between 1 and 16 μg/mL inclusive)
NC(=O)c1ncn(CC(=O)N[C@H]2Cc3cccc(C(=O)O)c3OB2O)n1 [Example 35, (R)-3-(2-(3-carbamoyl-1H-1,2,4-triazol-1-yl)acetamido)-2-hydroxy-3,4-dihydro-2H-benzo[e][1,2]oxaborinine-8-carboxylic acid] | < 100 nM | < 100 nM | 1000 to 10000 nM | < 100 nM | 1000 to 10000 nM | C (C represents an MIC of <1 μg/mL) | C (C represents an MIC of <1 μg/mL) | B (B represents an MIC between 1 and 16 μg/mL inclusive) | B (B represents an MIC between 1 and 16 μg/mL inclusive) | A (A represents an MIC>16 μg/mL) | B (B represents an MIC between 1 and 16 μg/mL inclusive)
NCCNC(=O)c1cn(CC(=O)N[C@H]2Cc3cccc(C(=O)O)c3OB2O)nn1 [Example 37, (R)-3-(2-(4-((2-aminoethyl)carbamoyl)-1H-1,2,3-triazol-1-yl)acetamido)-2-hydroxy-3,4-dihydro-2H-benzo[e][1,2]oxaborinine-8-carboxylic acid] | < 100 nM | < 100 nM | < 100 nM | < 100 nM | 1000 to 10000 nM | C (C represents an MIC of <1 μg/mL) | C (C represents an MIC of <1 μg/mL) | B (B represents an MIC between 1 and 16 μg/mL inclusive) | C (C represents an MIC of <1 μg/mL) | C (C represents an MIC of <1 μg/mL) | B (B represents an MIC between 1 and 16 μg/mL inclusive)
NCCn1cncc1C(=O)N[C@H]1Cc2cccc(C(=O)O)c2OB1O [Example 73, (R)-3-(1-(2-aminoethyl)-1H-imidazole-5-carboxamido)-2-hydroxy-3,4-dihydro-2H-benzo[e][1,2]oxaborinine-8-carboxylic acid] | < 100 nM | < 100 nM | 100 to 1000 nM | < 100 nM | 100 to 1000 nM | C (C represents an MIC of <1 μg/mL) | C (C represents an MIC of <1 μg/mL) | B (B represents an MIC between 1 and 16 μg/mL inclusive) | C (C represents an MIC of <1 μg/mL) | B (B represents an MIC between 1 and 16 μg/mL inclusive) | B (B represents an MIC between 1 and 16 μg/mL inclusive)
CC(C)NCc1cn(CC(=O)N[C@H]2Cc3cccc(C(=O)O)c3OB2O)nn1 [Example 4, (R)-2-hydroxy-3-(2-(4-((isopropylamino)methyl)-1H-1,2,3-triazol-1-yl)acetamido)-3,4-dihydro-2H-benzo[e][1,2]oxaborinine-8-carboxylic acid] | 100 to 1000 nM | 100 to 1000 nM | < 100 nM | < 100 nM | < 100 nM | C (C represents an MIC of <1 μg/mL) | C (C represents an MIC of <1 μg/mL) | B (B represents an MIC between 1 and 16 μg/mL inclusive) | C (C represents an MIC of <1 μg/mL) | C (C represents an MIC of <1 μg/mL) | B (B represents an MIC between 1 and 16 μg/mL inclusive)
